Experimental data as given in patent publication US4254106A, “Biologically active amides” (priority 1976, dated 1981).
Counter-ions that a name gives are not always drawn. Non-standard residues stand in square brackets, D forms with d. Residues, ends and D or L forms follow the SMILES beside them.

Tested on: isolated mouse vas deferens
Format: cell-based
Settings: for Relative Potency (Morphine): RP=antilog[logD50(morphine)-logD50(test compound)]; for IC50: dose giving the response halfway between maximum response and minimum contraction, pulses at 0.1 Hz, mean of generally at least two cumulative dose response curves, read-out: Mean D50
Method: The compounds were examined for their ability to inhibit neurally evoked contractions of the isolated mouse vas deferens preparation (method of Hughes et al, Brain Research, 88 (1975) 296, using pulses at 0.1 Hz).
The heights of the five contractions that immediately preceded the addition of the first "dose" of test compound were measured and their mean calculated. The resultant mean contraction associated with a particular bath concentration of test compound was calculated from the heights of the 6th, 7th, 8th, 9th and 10th contractions after the addition of the appropriate "dose" of test compound, i.e. the five contractions that immediately preceded the subsequent "dose" or washout.
The mean control contraction height and the concentration related mean contraction heights were used to compute the constants in an equation based on the Langmuir Adsorption Isotherm which defined the dose response curve: [formula] where y=contraction (mm)
For each test compound the D50 was calculated, defined as the dose giving the resonse that is halfway between the maximum response and the minimum contraction of the tissue.
Generally at least two cumulative dose response curves were constructed and a mean D50 calculated.

Compound: CSCC[C@H](NC(=O)[C@H](Cc1ccccc1)NC(=O)CNC(=O)[C@@H](C)NC(=O)[C@@H](N)Cc1ccc(O)cc1)C(=O)O [5(a), H.Tyr.D-Ala.Gly.Phe.Met.OH HCl]
- Relative Potency (Morphine): 229
- IC50: 2.03 nM

Compound: COC(=O)[C@H](CCSC)NC(=O)[C@H](Cc1ccccc1)NC(=O)CNC(=O)[C@@H](C)NC(=O)[C@@H](N)Cc1ccc(O)cc1 [5(b), H.Tyr.D-Ala.Gly.Phe.Met.OMe]
- Relative Potency (Morphine): 94
- IC50: 4.95 nM

Compound: CC(C)C[C@H](NC(=O)[C@H](Cc1ccccc1)NC(=O)CNC(=O)[C@@H](C)NC(=O)[C@@H](N)Cc1ccc(O)cc1)C(=O)O [Example 4, H.Tyr.D-Ala.Gly.Phe.Leu.OH HCl]
- Relative Potency (Morphine): 267
- IC50: 1.74 nM

Compound: CSCC[C@H](NC(=O)[C@H](Cc1ccccc1)NC(=O)CNC(=O)[C@@H](C)NC(=O)[C@@H](N)Cc1ccc(O)cc1)C(=O)N[C@H](C(=O)O)[C@@H](C)O [Example 14, H.Tyr.D-Ala.Gly.Phe.Met.Thr.OH HCl] (H-Y[dA]GFMT-OH)
- Relative Potency (Morphine): 229
- IC50: 2.03 nM

Compound: CN1CC[C@]23c4c5ccc(O)c4O[C@H]2[C@@H](O)C=C[C@H]3[C@H]1C5 [Morphine, reference compound]
- Reversal of the inhibition of contractions by naloxone: Reversal of the inhibition of the contractions was effected
